Test results as given in US3948899A, “α-Cyanobenzylpiperazines and a process for producing the same” (Fuji Chemical Industry Co., Ltd., priority 1973, dated 1976).
Where a name gives a salt, the structure may show the parent alone.

What was measured:
mongrel adult dogs [1] = assay: Effects on coronary sinus out flow (thoractomized anesthetized dogs, i.v.); assay type: in vivo, dog
Method: (§1) All experiments were conducted on male and female thoractomized mongrel adult dogs weighing about 10 Kg under anesthesia with pentobarbital sodium.
(§2) Arterial blood pressure was measured by pressure transducer (Nippon Koden MPU-0.5) connected with the cannula inserted from exposed carotid artery into aorta. Aortic blood flow was determined by means of electromagnetic flow meter (Nippon Koden MF-5) mounted at an origin of aorta. Coronary sinus out flow and coronary sinus oxygen tension were assessed by means of electromagnetic flow meter (Nippon Koden MF-5) and Po2 Macro electrode (Beckmann Moder 160-C), respectively, using Morawitz cannulization technique. Heart rate was measured by cardiotachometer (Nippon Koden RT-2) synchronized with systolic blood pressure of aorta.

[2] = prior art; cited from earlier work
[3] = Acute toxicity (LD50; per os, mice); assay type: in vivo; conditions: mouse, in vivo, po, dd-0train male mice
Method: 7. Acute Toxicity (See Table 7) Acute toxicity (LD50; per os, mice) was measured in dd-0train male mice.

mongrel adult dogs [4] = assay: Effects on coronary sinus oxygen tension (thoractomized anesthetized dogs, i.v.); assay type: in vivo, dog
Method: as §1, §2

mongrel adult dogs [5] = assay: Effects on arterial mean blood pressure (thoractomized anesthetized dogs, i.v.); assay type: in vivo, dog
Method: as §1, §2

## COc1ccc(CN2CCNCC2)c(OC)c1OC [Vastarel F, 2,3,4 -trimethoxybenzylpiperazine dihydrochloride]
Mongrel adult dogs [1]; i.v. 0.2 mg/Kg, 1 min
  Changes(%) of basal values, coronery sinus out flow: +1.0%
Mongrel adult dogs [1]; i.v. 0.2 mg/Kg, 5 min
  Changes(%) of basal values, coronery sinus out flow: 0%
Mongrel adult dogs [1]; i.v. 0.2 mg/Kg, 10 min
  Changes(%) of basal values, coronery sinus out flow: 0%
Mongrel adult dogs [1]; i.v. 0.2 mg/Kg, 15 min
  Changes(%) of basal values, coronery sinus out flow: 0%
Mongrel adult dogs [1]; i.v. 0.2 mg/Kg, 20 min
  Changes(%) of basal values, coronery sinus out flow: 0%
Mongrel adult dogs [1]; i.v. 0.2 mg/Kg, 25 min
  Changes(%) of basal values, coronery sinus out flow: 0%
Mongrel adult dogs [1]; i.v. 0.2 mg/Kg, 30 min
  Changes(%) of basal values, coronery sinus out flow: 0%
Mongrel adult dogs [1]; i.v. 0.2 mg/Kg, imm.
  Changes(%) of basal values, coronery sinus out flow: +4.0%
Mongrel adult dogs [1]; i.v. 0.6 mg/Kg, 1 min
  Changes(%) of basal values, coronery sinus out flow: +2.5%
Mongrel adult dogs [1]; i.v. 0.6 mg/Kg, 5 min
  Changes(%) of basal values, coronery sinus out flow: +2.5%
Mongrel adult dogs [1]; i.v. 0.6 mg/Kg, 10 min
  Changes(%) of basal values, coronery sinus out flow: 0%
Mongrel adult dogs [1]; i.v. 0.6 mg/Kg, 15 min
  Changes(%) of basal values, coronery sinus out flow: 0%
Mongrel adult dogs [1]; i.v. 0.6 mg/Kg, 20 min
  Changes(%) of basal values, coronery sinus out flow: 0%
Mongrel adult dogs [1]; i.v. 0.6 mg/Kg, 25 min
  Changes(%) of basal values, coronery sinus out flow: 0%
Mongrel adult dogs [1]; i.v. 0.6 mg/Kg, 30 min
  Changes(%) of basal values, coronery sinus out flow: 0%
Mongrel adult dogs [1]; i.v. 0.6 mg/Kg, imm.
  Changes(%) of basal values, coronery sinus out flow: +6.0%
Mongrel adult dogs [1]; i.v. 2.0 mg/Kg, 1 min
  Changes(%) of basal values, coronery sinus out flow: -3.0%
Mongrel adult dogs [1]; i.v. 2.0 mg/Kg, 5 min
  Changes(%) of basal values, coronery sinus out flow: +3.0%
Mongrel adult dogs [1]; i.v. 2.0 mg/Kg, 10 min
  Changes(%) of basal values, coronery sinus out flow: +9.0%
Mongrel adult dogs [1]; i.v. 2.0 mg/Kg, 15 min
  Changes(%) of basal values, coronery sinus out flow: +8.0%
Mongrel adult dogs [1]; i.v. 2.0 mg/Kg, 20 min
  Changes(%) of basal values, coronery sinus out flow: +4.0%
Mongrel adult dogs [1]; i.v. 2.0 mg/Kg, 25 min
  Changes(%) of basal values, coronery sinus out flow: +1.0%
Mongrel adult dogs [1]; i.v. 2.0 mg/Kg, 30 min
  Changes(%) of basal values, coronery sinus out flow: 0%
Mongrel adult dogs [1]; i.v. 2.0 mg/Kg, imm.
  Changes(%) of basal values, coronery sinus out flow: -13.0%
[2]
  Effect on the heart, disadvantage (in words): depressant effect on the heart
[3]
  LD50: 960 mg/kg
Mongrel adult dogs [4]; i.v. 0.2 mg/Kg, 1 min
  Changes(%) of basal values, coronary sinus oxygen tension: +1.0%
Mongrel adult dogs [4]; i.v. 0.2 mg/Kg, 5 min
  Changes(%) of basal values, coronary sinus oxygen tension: 0%
Mongrel adult dogs [4]; i.v. 0.2 mg/Kg, 10 min
  Changes(%) of basal values, coronary sinus oxygen tension: 0%
Mongrel adult dogs [4]; i.v. 0.2 mg/Kg, 15 min
  Changes(%) of basal values, coronary sinus oxygen tension: 0%
Mongrel adult dogs [4]; i.v. 0.2 mg/Kg, 20 min
  Changes(%) of basal values, coronary sinus oxygen tension: 0%
Mongrel adult dogs [4]; i.v. 0.2 mg/Kg, 25 min
  Changes(%) of basal values, coronary sinus oxygen tension: 0%
Mongrel adult dogs [4]; i.v. 0.2 mg/Kg, 30 min
  Changes(%) of basal values, coronary sinus oxygen tension: 0%
Mongrel adult dogs [4]; i.v. 0.2 mg/Kg, imm.
  Changes(%) of basal values, coronary sinus oxygen tension: +3.0%
Mongrel adult dogs [4]; i.v. 0.6 mg/Kg, 1 min
  Changes(%) of basal values, coronary sinus oxygen tension: +5.5%
Mongrel adult dogs [4]; i.v. 0.6 mg/Kg, 5 min
  Changes(%) of basal values, coronary sinus oxygen tension: +1.0%
Mongrel adult dogs [4]; i.v. 0.6 mg/Kg, 10 min
  Changes(%) of basal values, coronary sinus oxygen tension: 0%
Mongrel adult dogs [4]; i.v. 0.6 mg/Kg, 15 min
  Changes(%) of basal values, coronary sinus oxygen tension: 0%
Mongrel adult dogs [4]; i.v. 0.6 mg/Kg, 20 min
  Changes(%) of basal values, coronary sinus oxygen tension: 0%
Mongrel adult dogs [4]; i.v. 0.6 mg/Kg, 25 min
  Changes(%) of basal values, coronary sinus oxygen tension: 0%
Mongrel adult dogs [4]; i.v. 0.6 mg/Kg, 30 min
  Changes(%) of basal values, coronary sinus oxygen tension: 0%
Mongrel adult dogs [4]; i.v. 0.6 mg/Kg, imm.
  Changes(%) of basal values, coronary sinus oxygen tension: +9.0%
Mongrel adult dogs [4]; i.v. 2.0 mg/Kg, 1 min
  Changes(%) of basal values, coronary sinus oxygen tension: +1.5%
Mongrel adult dogs [4]; i.v. 2.0 mg/Kg, 5 min
  Changes(%) of basal values, coronary sinus oxygen tension: +2.0%
Mongrel adult dogs [4]; i.v. 2.0 mg/Kg, 10 min
  Changes(%) of basal values, coronary sinus oxygen tension: +5.0%
Mongrel adult dogs [4]; i.v. 2.0 mg/Kg, 15 min
  Changes(%) of basal values, coronary sinus oxygen tension: +5.0%
Mongrel adult dogs [4]; i.v. 2.0 mg/Kg, 20 min
  Changes(%) of basal values, coronary sinus oxygen tension: +3.0%
Mongrel adult dogs [4]; i.v. 2.0 mg/Kg, 25 min
  Changes(%) of basal values, coronary sinus oxygen tension: +0.5%
Mongrel adult dogs [4]; i.v. 2.0 mg/Kg, 30 min
  Changes(%) of basal values, coronary sinus oxygen tension: 0%
Mongrel adult dogs [4]; i.v. 2.0 mg/Kg, imm.
  Changes(%) of basal values, coronary sinus oxygen tension: +3.0%
Mongrel adult dogs [4]; i.v., between 5 and 20 minutes
  Increase in oxygen tension: up to 5%
Mongrel adult dogs [5]; i.v. 0.2 mg/Kg, 1 min
  Changes(%) of basal values, arterial mean blood pressure: -1.0%
Mongrel adult dogs [5]; i.v. 0.2 mg/Kg, 5 min
  Changes(%) of basal values, arterial mean blood pressure: -2.0%
Mongrel adult dogs [5]; i.v. 0.2 mg/Kg, 10 min
  Changes(%) of basal values, arterial mean blood pressure: -1.5%
Mongrel adult dogs [5]; i.v. 0.2 mg/Kg, 15 min
  Changes(%) of basal values, arterial mean blood pressure: -1.0%
Mongrel adult dogs [5]; i.v. 0.2 mg/Kg, 20 min
  Changes(%) of basal values, arterial mean blood pressure: 0%
Mongrel adult dogs [5]; i.v. 0.2 mg/Kg, 25 min
  Changes(%) of basal values, arterial mean blood pressure: 0%
Mongrel adult dogs [5]; i.v. 0.2 mg/Kg, 30 min
  Changes(%) of basal values, arterial mean blood pressure: 0%
Mongrel adult dogs [5]; i.v. 0.2 mg/Kg, imm.
  Changes(%) of basal values, arterial mean blood pressure: -3.0%
Mongrel adult dogs [5]; i.v. 0.6 mg/Kg, 1 min
  Changes(%) of basal values, arterial mean blood pressure: -2.0%
Mongrel adult dogs [5]; i.v. 0.6 mg/Kg, 5 min
  Changes(%) of basal values, arterial mean blood pressure: -1.5%
Mongrel adult dogs [5]; i.v. 0.6 mg/Kg, 10 min
  Changes(%) of basal values, arterial mean blood pressure: -1.0%
Mongrel adult dogs [5]; i.v. 0.6 mg/Kg, 15 min
  Changes(%) of basal values, arterial mean blood pressure: -1.0%
Mongrel adult dogs [5]; i.v. 0.6 mg/Kg, 20 min
  Changes(%) of basal values, arterial mean blood pressure: 0%
Mongrel adult dogs [5]; i.v. 0.6 mg/Kg, 25 min
  Changes(%) of basal values, arterial mean blood pressure: 0%
Mongrel adult dogs [5]; i.v. 0.6 mg/Kg, 30 min
  Changes(%) of basal values, arterial mean blood pressure: 0%
Mongrel adult dogs [5]; i.v. 0.6 mg/Kg, imm.
  Changes(%) of basal values, arterial mean blood pressure: -6.0%
Mongrel adult dogs [5]; i.v. 2.0 mg/Kg, 1 min
  Changes(%) of basal values, arterial mean blood pressure: -35.0%
Mongrel adult dogs [5]; i.v. 2.0 mg/Kg, 5 min
  Changes(%) of basal values, arterial mean blood pressure: -2.0%
Mongrel adult dogs [5]; i.v. 2.0 mg/Kg, 10 min
  Changes(%) of basal values, arterial mean blood pressure: -1.0%
Mongrel adult dogs [5]; i.v. 2.0 mg/Kg, 15 min
  Changes(%) of basal values, arterial mean blood pressure: 0%
Mongrel adult dogs [5]; i.v. 2.0 mg/Kg, 20 min
  Changes(%) of basal values, arterial mean blood pressure: -1.0%
Mongrel adult dogs [5]; i.v. 2.0 mg/Kg, 25 min
  Changes(%) of basal values, arterial mean blood pressure: -2.0%
